Reference: publication PMC6494935, “Glesatinib, a c-MET/SMO Dual Inhibitor, Antagonizes P-glycoprotein Mediated Multidrug Resistance in Cancer Cells” (Frontiers in Oncology, 2019)

What was measured:
[1] = biological target: T1, P-glycoprotein (P-gp, ABCB1) (Homo sapiens, UniProt P08183); test: vanadate-sensitive ATPase stimulation in membrane vesicles; also inhibits [3H]-paclitaxel efflux in KB-C2 cells; type: biochemical; parameters: ABCB1 in membrane vesicles of High Five insect cells
[2] = biological target: T1, P-glycoprotein (P-gp, ABCB1)

T1 sequence (P08183 whole entry): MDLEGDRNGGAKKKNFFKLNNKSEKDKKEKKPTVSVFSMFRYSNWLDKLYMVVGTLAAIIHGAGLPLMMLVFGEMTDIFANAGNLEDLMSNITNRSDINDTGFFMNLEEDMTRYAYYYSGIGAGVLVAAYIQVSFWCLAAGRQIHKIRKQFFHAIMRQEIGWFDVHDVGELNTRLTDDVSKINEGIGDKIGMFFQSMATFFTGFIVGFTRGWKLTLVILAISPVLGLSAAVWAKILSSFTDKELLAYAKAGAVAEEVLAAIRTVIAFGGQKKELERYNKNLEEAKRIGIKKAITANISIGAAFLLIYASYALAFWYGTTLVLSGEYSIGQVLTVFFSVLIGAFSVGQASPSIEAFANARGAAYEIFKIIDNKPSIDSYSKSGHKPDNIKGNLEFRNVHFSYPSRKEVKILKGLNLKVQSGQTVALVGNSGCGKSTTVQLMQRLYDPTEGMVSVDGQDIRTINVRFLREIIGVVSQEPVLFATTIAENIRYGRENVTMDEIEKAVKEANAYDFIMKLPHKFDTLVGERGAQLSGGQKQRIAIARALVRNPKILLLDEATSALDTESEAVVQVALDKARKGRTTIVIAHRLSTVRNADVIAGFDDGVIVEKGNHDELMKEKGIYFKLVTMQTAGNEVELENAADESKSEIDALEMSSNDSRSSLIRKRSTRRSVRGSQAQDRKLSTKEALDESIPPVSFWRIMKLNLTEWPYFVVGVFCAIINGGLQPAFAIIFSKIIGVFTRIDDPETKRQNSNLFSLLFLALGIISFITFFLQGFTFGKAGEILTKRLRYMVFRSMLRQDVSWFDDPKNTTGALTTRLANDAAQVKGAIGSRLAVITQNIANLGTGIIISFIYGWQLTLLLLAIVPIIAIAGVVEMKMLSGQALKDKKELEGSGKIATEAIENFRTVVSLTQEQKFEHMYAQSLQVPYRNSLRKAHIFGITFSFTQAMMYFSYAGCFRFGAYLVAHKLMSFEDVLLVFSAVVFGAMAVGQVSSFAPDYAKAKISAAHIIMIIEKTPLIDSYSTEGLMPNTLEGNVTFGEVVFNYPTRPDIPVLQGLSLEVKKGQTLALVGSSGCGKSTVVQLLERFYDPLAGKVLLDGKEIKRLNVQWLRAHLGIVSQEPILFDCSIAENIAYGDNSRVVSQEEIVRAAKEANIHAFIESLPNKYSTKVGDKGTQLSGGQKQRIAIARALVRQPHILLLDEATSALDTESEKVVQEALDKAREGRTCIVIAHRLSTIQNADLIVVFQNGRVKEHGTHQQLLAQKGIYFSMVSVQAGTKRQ

EC50 [1] [µM] | SMILES | [3H]-paclitaxel accumulation and efflux in KB-C2 vs parental KB-3-1 cells [2]
3.2 | COCCNCc1ccc(-c2cc3nccc(Oc4ccc(NC(=S)NC(=O)Cc5ccc(F)cc5)cc4F)c3s2)nc1 [glesatinib] | 
 | CC(=O)O[C@H]1C(=O)[C@@]2(C)[C@H]([C@H](OC(=O)c3ccccc3)[C@]3(O)C[C@H](OC(=O)[C@H](O)[C@@H](NC(=O)c4ccccc4)c4ccccc4)C(C)=C1C3(C)C)[C@]1(OC(C)=O)CO[C@@H]1C[C@@H]2O [paclitaxel] | While in P-gp overexpressing KB-C-2 cells, [^3H]-paclitaxel accumulation decreased significantly as shown in Figures 4A,C.
